Data: patent US20100136598A1, “NOVEL MESENCHYMAL PROGENITOR CELLS DERIVED FROM HUMAN BLASTOCYST-DERIVED STEM CELLS” (priority 2007, published 2010)
Read-outs that look alike come from different tables or passages of the source.

Tests used:
hBS-MP cells [1] = test system: hBS-MP cells
Description: hBS cells were dissociated into small cell aggregates and seeded into 96-well plates (Nunc, Kamstrupvej, Denmark) in 100 μl Test medium containing Knock Out DMEM supplemented with 20% Foetal bovine Serum (FBS), 1% penicillin-streptomycin, 1% Glutamax, 0.5 mmol/l β-mercaptoethanol and 1% non-essential amino acids (all Invitrogen). hBS-MP cells and hFF cells were dissociated into single cells and seeded into 96-well plates in 100 μl test medium.
After 24 hours the cytotoxicity test was started by adding 100 μl toxicity solution to the test wells that had twice the concentration as the required end concentration (day 0).

hBS cells = assay: Cytotoxicity test in 96-well plates, 10 days (ATP content / Resazurin); details: for Ratios between the IC50 values measured using the Resazurin assay: hBS cells (reference = 1), day 10
hBS-MP cells [2] = assay: as above; details: for sensitivity of hBS cells and hBS-MP cells compared to hFF cells (comparison of IC50 values): hBS and hBS-MP cells versus hFF cells; for Ratios between the IC50 values measured using the Resazurin assay: hBS-MP cells relative to hBS cells, day 10
hFF cells = assay: as above; details: for Ratios between the IC50 values measured using the Resazurin assay: hFF cells relative to hBS cells, day 10

Compound | sensitivity of hBS cells and progenitor cells compared to hFF (dose-response curve) (hBS-MP cells [1]) | Ratios between the IC50 values measured using the Resazurin assay (hBS cells) | sensitivity of hBS cells and hBS-MP cells compared to hFF cells (comparison of IC50 values) (hBS-MP cells [2]) | Ratios between the IC50 values measured using the Resazurin assay (hBS-MP cells [2]) | Ratios between the IC50 values measured using the Resazurin assay (hFF cells) | toxic reaction (hBS cells; hBS cells, data not shown) | toxic reaction (hBS-MP cells [2]; hBS-MP cells, data not shown) | toxic reaction (hFF cells; hFF cells, data not shown) | sensitivity of hBS cells and hBS-MP cells compared to hFF cells (comparison of IC50 values) (hBS-MP cells [1])
CC1=C(/C=C/C(C)=C/C=C/C(C)=C\C(=O)O)C(C)(C)CCC1 [13CRA, 13-cis-retinoic acid] | higher sensitivity | 1 | much more sensitive | 4 | 10 |  |  |  | 
O=C1NS(=O)(=O)c2ccccc21.[Na] [saccharin, sodium saccharin] |  |  |  |  |  | no toxic reaction | no toxic reaction | no toxic reaction | 
O=c1[nH]cc(F)c(=O)[nH]1 [5-FU, 5-fluoro-uracil] |  | 1 |  | 3 | 7 |  |  |  | much more sensitive
CC1=C(/C=C/C(C)=C/C=C/C(C)=C/C(=O)O)C(C)(C)CCC1 [ATRA, all-trans-retinoic acid] | higher sensitivity | 1 | much more sensitive | 1 | 2 |  |  |  | 
